Laboratory results from patent publication US20150045366A1, “SPRAY DRIED FORMULATIONS” (Gilead Sciences, Inc., priority 2012, published 2015).

Test: Hygroscopicity: weight gain and moisture induced phase transition in humidity-controlled desiccator
Assay type: physicochemical
Experimental: Hygroscopicity of the compositions of invention were measured by placing approximately 20 to 50 mg of the sample in an uncapped scintillation vial. The vial was stored at ambient temperature in a Pyrex brand desiccator (VWR, International, West Chester, Pa.). The humidity within the desiccator was controlled at 55% relative humidity and 75% relative humidity using saturated aqueous solutions of […] and sodium chloride, respectively. The relative humidity was confirmed using a digital hygrometer pen (VWR International, West Chester, Pa.). The weight gain for all the samples was determined after 24 hours; it was not determined whether equilibrium was reached after that period. Visual observation of moisture induced phase transition was also noted.

- Weight gain at 55% RH (55% relative humidity, ambient temperature, after 24 hours): 1.9%
- Weight gain at 75% RH (75% relative humidity, ambient temperature, after 24 hours): 3.7%
- Phase transition (at 55% RH) (visual observation of moisture induced phase transition, 55% RH, 24 hours): yes
- Phase transition (at 75% RH) (visual observation of moisture induced phase transition, 75% RH, 24 hours): yes
SMILES: CC(C)c1nc(CN(C)C(=O)N[C@@H](CCN2CCOCC2)C(=O)N[C@H](CC[C@H](Cc2ccccc2)NC(=O)OCc2cncs2)Cc2ccccc2)cs1 [Compound Free base, thiazol-5-ylmethyl (2R,5R)-5-((S)-2-(3-((2-isopropylthiazol-4-yl)methyl)-3-methylureido)-4-morpholinobutanamido)-1,6-diphenylhexan-2-ylcarbamate]
